“And” between values parts separate entries of the source, which are not always exact repeats. Equal values may be shown once.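 1) Cells in 96-well plates. 2) Compound, 48 h, 5 concentrations. 3) Linear interpolation between surrounding doses. 4) Unreached endpoint = highest concentration. TGI denotes the concentration required for complete inhibition of growth.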 Where a SMILES comes first, the peptide text is derived from it. [ ]: non-standard residue; d: D form. The star is where a group is joined. ξ: configuration not given here. ξD = NC(CC(=O)O)C(=O)O; Boc = CC(C)(C)OC(=O)*; Aib = CC(C)(N)C(=O)O; OBn = c1ccc(CO*)cc1 A value given as a limit tells only on which side of the number the result lay.

Test systems include HS 578T breast; NCI/ADR-RES ovarian; MDA-MB-435; HL-60(TB) leukemia; HCT-15 colon; TK-10 renal; SN12C renal; OVCAR-4 ovarian; BT-549 breast; PC-3 prostate; CAKI-1 renal; SF-539 CNS; RXF 393 renal; MALME-3M melanoma; CCRF-CEM leukemia; NCI-H522 lung; LOX IMVI melanoma; SR leukemia.
Test in all cases: DTP human tumour cell line panel, 48 h

For `Cc1[nH]c2ncn3[nH]c(=S)nc3c2c1Cc1ccccc1`, the TGI with HS 578T breast, in the assay with NCI/ADR-RES ovarian, with MDA-MB-435, in the assay with HL-60(TB) leukemia, in the assay on HCT-15 colon and in the assay with TK-10 renal was greater than 100 µM in each case. Further, the concentration for total growth inhibition (TGI) with SN12C renal, in the assay with OVCAR-4 ovarian, in the assay on BT-549 breast, in the assay on PC-3 prostate, in the assay with CAKI-1 renal and with SF-539 CNS was greater than 100 µM in each case. For the same compound, the total growth inhibition concentration (TGI) in the assay on RXF 393 renal, in the assay on MALME-3M melanoma, in the assay on CCRF-CEM leukemia and in the assay on NCI-H522 lung was greater than 100 µM throughout.

`CC1(C)CN(CC(=O)O)CC(Cc2ccc(OCC(=O)O)cc2)N(CC(=O)O)CC(C)(C)SS1` (centres undefined): the total growth inhibition concentration (TGI) in the assay on HS 578T breast, with NCI/ADR-RES ovarian, with MDA-MB-435, in the assay on HCT-15 colon, in the assay with TK-10 renal and in the assay with SN12C renal was greater than 100 µM throughout. Further, the TGI in the assay with OVCAR-4 ovarian, with BT-549 breast, with PC-3 prostate, in the assay with CAKI-1 renal, with SF-539 CNS and with RXF 393 renal was greater than 100 µM each time. The TGI with MALME-3M melanoma, in the assay on LOX IMVI melanoma and in the assay with NCI-H522 lung was greater than 100 µM each time.

Regarding `CC(=O)C1C(=O)C(=O)N(c2ccc([N+](=O)[O-])cc2[N+](=O)[O-])C1=O` (centres undefined), the TGI in the assay with HS 578T breast, in the assay on NCI/ADR-RES ovarian, in the assay with MDA-MB-435, with HL-60(TB) leukemia, with HCT-15 colon and in the assay with TK-10 renal was greater than 100 µM throughout. The TGI with SN12C renal, in the assay with OVCAR-4 ovarian, with BT-549 breast, with PC-3 prostate, with CAKI-1 renal and in the assay with SF-539 CNS was greater than 100 µM in each case. The TGI in the assay on RXF 393 renal, in the assay with CCRF-CEM leukemia, in the assay on LOX IMVI melanoma and in the assay with NCI-H522 lung was greater than 100 µM each time.

For `COc1ccccc1NC1Oc2cc3c(cc2C(c2cc(OC)c(OC)c(OC)c2)C1C)OCO3` (centres undefined), the concentration for total growth inhibition (TGI) in the assay on HS 578T breast was greater than 25.2 µM; in the assay with NCI/ADR-RES ovarian, greater than 33.1 µM; with HL-60(TB) leukemia, 3.36 µM; in the assay with HCT-15 colon, greater than 100 µM; in the assay on TK-10 renal it was greater than 100 µM; with SN12C renal, greater than 65.3 µM. Also, the total growth inhibition concentration (TGI) in the assay on OVCAR-4 ovarian is greater than 78.5 µM; in the assay on BT-549 breast, greater than 70.8 µM; in the assay with PC-3 prostate, greater than 100 µM; in the assay with CAKI-1 renal, 17.1 µM; in the assay on SF-539 CNS, 5.24 µM; in the assay with RXF 393 renal, 7.62 µM. The TGI in the assay on MALME-3M melanoma is 9.43 µM; in the assay on CCRF-CEM leukemia it was greater than 50.3 µM; with LOX IMVI melanoma, greater than 100 µM; in the assay on NCI-H522 lung, 4.82 µM.

As to `CC(C)(C)OC(=O)NC(CC(=O)OCc1ccccc1)C(=O)NC(C)(C)C(N)=O` (centres undefined) (Boc-[ξD](OBn)-[Aib]-NH2), the total growth inhibition concentration (TGI) in the assay on HS 578T breast, in the assay with NCI/ADR-RES ovarian, in the assay on MDA-MB-435, in the assay with HCT-15 colon, with TK-10 renal and in the assay with SN12C renal was greater than 100 µM in each case. Further, the concentration for total growth inhibition (TGI) in the assay on OVCAR-4 ovarian, in the assay on BT-549 breast, with PC-3 prostate, in the assay on CAKI-1 renal, with SF-539 CNS and with RXF 393 renal was greater than 100 µM throughout. The TGI in the assay with MALME-3M melanoma, with CCRF-CEM leukemia, with LOX IMVI melanoma and in the assay with NCI-H522 lung was greater than 100 µM throughout.

As for `CC(C(=O)NCNC(=O)c1ccccc1)C(=O)Nc1ccccc1` (centres undefined), the total growth inhibition concentration (TGI) in the assay on HS 578T breast, in the assay with NCI/ADR-RES ovarian, in the assay on MDA-MB-435, with HL-60(TB) leukemia, in the assay with HCT-15 colon and in the assay with TK-10 renal was greater than 100 µM throughout. In addition, the total growth inhibition concentration (TGI) in the assay with SN12C renal, in the assay on BT-549 breast, with PC-3 prostate, in the assay on CAKI-1 renal, with SF-539 CNS and with RXF 393 renal was greater than 100 µM in each case. In addition, the concentration for total growth inhibition (TGI) in the assay on MALME-3M melanoma, in the assay on CCRF-CEM leukemia and in the assay with NCI-H522 lung was greater than 100 µM each time.

As for `NCCCN(CCCCN(CCCN)Cc1ccccc1)Cc1ccccc1`, the TGI is 35.7 µM in the assay on HS 578T breast; greater than 100 µM in the assay with NCI/ADR-RES ovarian; greater than 100 µM in the assay with MDA-MB-435; greater than 100 µM in the assay with HL-60(TB) leukemia; greater than 100 µM with HCT-15 colon; greater than 100 µM in the assay with TK-10 renal. Moreover, the TGI is 42.5 µM with SN12C renal; greater than 100 µM in the assay on OVCAR-4 ovarian; greater than 100 µM in the assay on BT-549 breast; 31.9 µM with CAKI-1 renal; greater than 100 µM in the assay with SF-539 CNS; greater than 100 µM in the assay on RXF 393 renal. The TGI in the assay with MALME-3M melanoma is greater than 100 µM; in the assay on CCRF-CEM leukemia it was greater than 100 µM; in the assay with LOX IMVI melanoma, 40.5 µM; in the assay with NCI-H522 lung, 23.9 µM.

On to `Nc1nc(Cl)c(N)c(NCC2(CO)CCC(OCc3ccccc3)C2)n1` (centres undefined), for which the total growth inhibition concentration (TGI) in the assay with HS 578T breast, in the assay on NCI/ADR-RES ovarian, with MDA-MB-435, in the assay with HCT-15 colon, in the assay on TK-10 renal and with SN12C renal was greater than 100 µM each time. Further, the TGI in the assay on OVCAR-4 ovarian, with BT-549 breast, in the assay on PC-3 prostate, in the assay on CAKI-1 renal, with SF-539 CNS and with RXF 393 renal was greater than 100 µM each time. Also, the TGI with MALME-3M melanoma, in the assay with CCRF-CEM leukemia, in the assay with LOX IMVI melanoma and in the assay on NCI-H522 lung was greater than 100 µM each time.

`CCOC(=O)c1c(NC(=S)Nc2ccccc2)sc2c1CCN(C)C2`: the TGI in the assay on HS 578T breast, in the assay with NCI/ADR-RES ovarian, with HL-60(TB) leukemia, in the assay with HCT-15 colon, with TK-10 renal and in the assay on SN12C renal was greater than 100 µM throughout. For the same compound, the total growth inhibition concentration (TGI) in the assay with BT-549 breast, in the assay with PC-3 prostate, in the assay on CAKI-1 renal, with SF-539 CNS, in the assay on RXF 393 renal and in the assay with CCRF-CEM leukemia was greater than 100 µM in each case.

With `N#CC(O)CCOCc1ccccc1` (centres undefined), the TGI with NCI/ADR-RES ovarian, in the assay on MDA-MB-435, in the assay on HL-60(TB) leukemia, in the assay with HCT-15 colon, in the assay on TK-10 renal and in the assay with SN12C renal was greater than 100 µM each time. In addition, the concentration for total growth inhibition (TGI) in the assay with OVCAR-4 ovarian was greater than 100 µM; in the assay with BT-549 breast, greater than 100 µM; in the assay with PC-3 prostate, greater than 100 µM; in the assay on CAKI-1 renal it was 35.6 µM; in the assay on SR leukemia it was greater than 100 µM; in the assay with SF-539 CNS, greater than 100 µM. Besides, the TGI with CCRF-CEM leukemia is greater than 100 µM; in the assay on LOX IMVI melanoma, greater than 100 µM; with NCI-H522 lung, 51.4 µM.

In the case of `O=C(NC(CS)C(=O)O)c1c2ccccc2nc2ccccc12` (centres undefined), the TGI in the assay on NCI/ADR-RES ovarian was greater than 100 µM; in the assay on MDA-MB-435, 16 µM; in the assay with HL-60(TB) leukemia it was greater than 100 µM; in the assay with HCT-15 colon, greater than 100 µM; in the assay on TK-10 renal, greater than 100 µM; in the assay with SN12C renal, greater than 100 µM. Besides, the TGI in the assay with OVCAR-4 ovarian was greater than 100 µM; with BT-549 breast, 58.5 µM; in the assay on PC-3 prostate, greater than 100 µM; in the assay with CAKI-1 renal it was greater than 100 µM; with SR leukemia it was greater than 100 µM; in the assay with SF-539 CNS, greater than 100 µM. For the same compound, the TGI was 56.8 µM with MALME-3M melanoma, greater than 100 µM with CCRF-CEM leukemia, greater than 100 µM in the assay on LOX IMVI melanoma and greater than 100 µM with NCI-H522 lung.

Regarding `CCOC(=O)c1c(CN2CCNCC2)nc2ccc(Cl)cc2c1-c1ccccc1`, the TGI in the assay on MDA-MB-435 is 8.21 µM; with HL-60(TB) leukemia it was 4.38 µM; in the assay with HCT-15 colon, 10.5 µM; in the assay with TK-10 renal it was 10.8 µM; in the assay with SN12C renal, 15 µM; in the assay with OVCAR-4 ovarian it was 12.3 µM. For the same compound, the concentration for total growth inhibition (TGI) in the assay with BT-549 breast worked out at 27 µM; in the assay with PC-3 prostate, 12.4 µM; in the assay with CAKI-1 renal, 8.11 µM; in the assay on SR leukemia it was 4.51 µM; in the assay with SF-539 CNS, 7.56 µM; in the assay with RXF 393 renal it was 10.7 µM. The TGI was found to be 3.56 µM in the assay with MALME-3M melanoma, 8.21 µM with CCRF-CEM leukemia, 3.26 µM with LOX IMVI melanoma and 9.41 µM with NCI-H522 lung.

With `CCOC(=O)c1cc(=O)c2cccc3c2n1CCS3`, the TGI with HS 578T breast, with NCI/ADR-RES ovarian, in the assay on MDA-MB-435, with HL-60(TB) leukemia, in the assay with HCT-15 colon and with TK-10 renal was greater than 100 µM throughout. In addition, the TGI in the assay with SN12C renal, in the assay with BT-549 breast, in the assay on PC-3 prostate, with CAKI-1 renal, in the assay on SF-539 CNS and in the assay with CCRF-CEM leukemia was greater than 100 µM each time. Also, the TGI with LOX IMVI melanoma and with NCI-H522 lung was greater than 100 µM in each case.

On to `N=S(c1ccccc1[N+](=O)[O-])c1ccccc1[N+](=O)[O-]`, for which the concentration for total growth inhibition (TGI) with HS 578T breast is greater than 100 µM; in the assay with HL-60(TB) leukemia, 2.57 µM and 3.39 µM; in the assay on HCT-15 colon, 2.06 µM and 3.72 µM; with TK-10 renal, 7.42 µM and 6.53 µM; with SN12C renal it was 2.89 µM and 3.19 µM; in the assay on OVCAR-4 ovarian, 2.05 µM and 1.11 µM. Also, the total growth inhibition concentration (TGI) in the assay with BT-549 breast is 3.13 µM; with PC-3 prostate, 2.98 µM; in the assay with CAKI-1 renal, 4.19 µM and 12 µM; in the assay on SF-539 CNS, 6.9 µM and 9.89 µM; in the assay on RXF 393 renal, 5.6 µM and 14.4 µM; in the assay with MALME-3M melanoma, 6.1 µM and 7.33 µM. The TGI in the assay with CCRF-CEM leukemia was 7.79 µM and 2.7 µM; in the assay on LOX IMVI melanoma it was 1.68 µM and 2.58 µM; in the assay on NCI-H522 lung, 1.2 µM and 1.1 µM.

As usually defined, the TGI is the concentration giving total growth inhibition. A high value points to lower sensitivity of the cells.

(Values after PubChem BioAssay (NCI).)
